Results: patent publication US11401303B2, “Synthetic peptide BRAP and application in preparation of anti-inflammatory drug for COVID-19 thereof” (TAIAN CITY QIHANG BIOTECHNOLOGY CO., priority 2020, dated 2022)

Legend:
[1] = system: OVA-induced allergic rhinitis; assay: Rat allergic nasal inflammation (OVA-induced allergic rhinitis), intranasal administration; assay type: in vivo, SD rat; conditions: all dose groups of the peptide; bilateral nasal cavities 50 μL/side, 4 weeks, continued OVA provocation
Experimental: SD rat modeling: two stages of intraperitoneal injection for sensitization and intranasal dripping for stimulation. Ovalbumin was injected intraperitoneally, and 1 mg ovalbumin (V-class Sigma, USA) was dissolved in 1 ml normal saline, and 30 mg of aluminum hydroxide was added as an immunologic adjuvant. Each rat was intraperitoneally injected 1 ml ovalbumin suspension prepared above with 1 ml/time every other day and for 7 times in total; and stimulated intranasally with ovalbumin on the 15th day; 20 mg ovalbumin (V-class Sigma, USA) were dissolved in 1 ml normal saline to be prepared into a 2% solution; and the 2% ovalbumin solution was used for stimulation by nasal dripping; and 50 ul nasal drips were administered in each of the nasal cavities of each rat for 7 consecutive days.
Blank control group: 30 mg of aluminum hydroxide+1 ml of normal saline were mixed evenly, and then injected intraperitoneally; and the method was the same as the above.
Normal saline was dripped into nasal cavities on the 15th day.
After the final nasal dripping was performed, each rat was observed and evaluated according to a scoring table: Sneezing, nose scratching, gasping and nasal secretions
1. Administration way: a drug was administered with a micro-sampling gun, bilateral nasal cavities of a rat were administered with 50 μL/side, after being administered for 20 min, a 2% ovalbumin solution was administered to bilateral nasal cavities of the rat; 50 μL/side nasal dripping was administered for provocation; the above treatment was performed for 4 consecutive weeks to observe the pharmacodynamic effect.
High-dose synthetic peptide brap: a synthetic peptide brap freeze-dried powder (5 mg/bottle) was taken, and 1.63 ml sterile saline solution was added for dissolving;
medium-dose synthetic peptide brap: a synthetic peptide brap freeze-dried powder (5 mg/bottle) was taken, and 4.89 ml sterile saline solution was added for dissolving;
low-dose synthetic peptide brap: a synthetic peptide brap freeze-dried powder (5 mg/bottle) was taken, and 14.67 ml sterile saline solution was added for dissolving;

[2] = system: LPS-induced acute lung injury; assay: LPS-induced acute lung injury in mice, HE pathological examination of lung tissues; assay type: in vivo, Balb/C mice; conditions: 16 mg/kgBW via tail vein once/day; LPS 5 mg/kgBW i.p.
Experimental: 1. Grade-SPF male Balb/C mice, body weight: 20±2 g, and n=48
3. Grouping and treatment: mice were randomly divided into 8 groups (A-H), 6 pcs./group;
3-1: 3 different treatments were given for 3 consecutive days respectively before modeling:
A. normal control group: normal saline was injected via the tail vein for once/day;
B. LPS model group: normal saline was injected via the tail vein for once/day;
C. model sp2 administration group: sp2 (16 mg/kgBW) was injected via the tail vein for once/day;
D. model high-dose brap administration group: brap (16 mg/kgBW) was injected via the tail vein for once/day;
E. model medium-dose brap administration group: brap (8 mg/kgBW) was injected via the tail vein for once/day;
F. model low-dose brap administration group: brap (4 mg/kgBW) was injected via the tail vein for once/day;
G. model brap intranasal administration group: brap (3 mM) was administered nasal administration on both sides, 15 μl/each side; once a day;
H. model dexamethasone administration group (a positive control group): dexamethasone, DEX, 5 mg/kg was injected intraperitoneally for once a day.
Animals from groups A-H were continuously administered the above treatments for 30 min respectively, then group A was intraperitoneally injected isopyknic normal saline, and other groups were intraperitoneally injected LPS 5 mg/kgBW.
1. Tissue section and extending
2. Tissues were dewaxed and hydrated.
3. Tissues were dyed with a hematoxylin stain for 5-20 min (adjusted according to different tissues and experimental requirements), and washed by tap water.
4. Then, tissues were differentiated by a differentiation solution for 30 s.
5. Tissues were soaked by tap water for 15 min or warm water (about 50° C.) for 5 min.
6. Tissues were put in an Eosin stain for 2 min (adjusted according to different tissues and experimental requirements), and washed by tap water.
7. Then, the tissues were soaked by tap water for 5 min.
8. Dehydration by gradient alcohol: Tissues were dehydrated by 95%, 100% I, and 100% II for 1 min each;
9. Transparency by xylene: tissues were subjected to xylene I and II for 10 min.
10. Neutral balsam mounting.
11. Then, it was put and dried in an oven at 60° C., and observed under microscope.

Q: Which results are given for “sp2: control synthetic peptide with an amino acid sequence as shown in SEQ ID No: 2 (RVLNGPEEEAAAPAE) [reference compound]”?
A: Scoring change before and after treatment [1]: increases; Lung tissue pathology (HE) [2]: inflammatory cell infiltration is obvious
